One experiment has as its target T1, rP2X3 WT (Rattus norvegicus, UniProt P49654).
T1 construct: EGFP (only implied by the anti-EGFP blot of rP2X3 plasmids); expressed in transfected cells; host or cells: HEK293
T1 sequence (P49654 1-397): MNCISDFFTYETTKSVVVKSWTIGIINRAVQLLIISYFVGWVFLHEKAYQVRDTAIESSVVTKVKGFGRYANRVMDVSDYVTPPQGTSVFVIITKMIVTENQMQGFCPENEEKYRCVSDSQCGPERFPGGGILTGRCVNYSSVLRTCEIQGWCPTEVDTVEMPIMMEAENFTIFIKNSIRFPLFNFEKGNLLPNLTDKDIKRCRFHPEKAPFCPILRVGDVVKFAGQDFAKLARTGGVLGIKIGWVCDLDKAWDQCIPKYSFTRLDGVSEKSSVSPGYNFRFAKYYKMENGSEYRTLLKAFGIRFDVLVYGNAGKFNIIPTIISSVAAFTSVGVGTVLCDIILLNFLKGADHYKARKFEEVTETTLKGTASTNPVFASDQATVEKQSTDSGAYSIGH
The experiment can be described thus: Nystatin perforated patch recording of ATP-evoked currents, transfected HEK293 cells. The conditions noted are these: Hill 1 fit, mean ± s.e.m. In kind it is cell-based. As for the experimental part:
As we described previously, [41], [42], human embryonic kidney (HEK 293) cells were purchased from Shanghai Institutes for Biological Sciences and cultured in Dulbecco's Modified Eagle Medium supplemented with 10% fetal bovine serum (FBS), 1% penicillin-streptomycin and 1% GlutaMAX™ at 37 °C, 5% CO2 and 95% air in a humidified environment. Plasmids were transfected into cells using transfection agents containing two solutions (Solution A: 250 mM CaCl2 in pure water; Solution B (in mM): 1.5 Na2HPO4, 140 NaCl and 50 HEPES, pH adjusted to 6.96). […]
Nystatin (0.15 mg/mL) was diluted with a high potassium internal solution containing (in mM): 75 K2SO4, 55 KCl, 5 MgSO4, and 10 HEPES (pH 7.4). The ckP2X7 and rP2X2 receptor currents were recorded using conventional whole-cell patch configuration. At 24–48 h after transfection, HEK293 cells were recorded using an Axopatch 200B amplifier (Molecular Devices, USA) at room temperature (25 ± 2 °C), with holding a potential of − 60 mV. Current data were sampled at 10 kHz, filtered at 2 kHz, and analyzed using the PCLAMP 10 software (Molecular Devices, USA). […]
All electrophysiological recordings were analyzed using Clampfit 10.6 (Molecular Devices). Pooled data were expressed as mean and standard error of the mean (s.e.m.). […]

A further experiment addresses T2, rP2X3 K201C/V274C (Rattus norvegicus, UniProt P49654, K201C/V274C).
T2 construct: EGFP (only implied by the anti-EGFP blot of rP2X3 plasmids); expressed in transfected cells; host or cells: HEK293
T2 sequence (P49654 1-397 K201C/V274C): T1 sequence (P49654 1-397) with K201C, V274C
Described as above. In kind it is cell-based. The conditions noted are these: Hill 1 fit.

For another experiment, the target named is T3, hP2X3 WT (Homo sapiens, UniProt P56373).
T3 construct: host or cells: HEK293
T3 sequence (P56373 1-397): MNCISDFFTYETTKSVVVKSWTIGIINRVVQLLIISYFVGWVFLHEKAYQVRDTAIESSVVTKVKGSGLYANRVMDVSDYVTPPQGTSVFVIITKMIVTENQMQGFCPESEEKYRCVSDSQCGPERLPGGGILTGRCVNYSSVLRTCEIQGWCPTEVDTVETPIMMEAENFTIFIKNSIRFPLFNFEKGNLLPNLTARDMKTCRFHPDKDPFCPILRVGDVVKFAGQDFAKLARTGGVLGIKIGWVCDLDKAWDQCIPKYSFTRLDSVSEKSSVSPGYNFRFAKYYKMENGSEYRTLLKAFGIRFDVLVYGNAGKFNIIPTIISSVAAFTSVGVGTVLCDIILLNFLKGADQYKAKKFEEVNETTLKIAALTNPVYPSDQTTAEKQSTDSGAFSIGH
Described as above. The class given is cell-based. The conditions noted are these: Hill 1 fit.

A further experiment concerns the target T4, hP2X3 K113A (Homo sapiens, UniProt P56373, K113A).
T4 construct: expressed in transfected cells; host or cells: HEK293
T4 sequence (P56373 1-397 K113A): T3 sequence (P56373 1-397) with K113A
The experiment is described as above. In kind it is cell-based.

The target of a further experiment is T5, hP2X3 R204A (Homo sapiens, UniProt P56373, R204A).
T5 construct: expressed in transfected cells; host or cells: HEK293
T5 sequence (P56373 1-397 R204A): T3 sequence (P56373 1-397) with R204A
Described as above. In kind it is cell-based.

The subject of a further experiment is ckP2X7 T202W. The class given is cell-based, chicken.
The target of another experiment is T6, rP2X2 K212A (Rattus norvegicus, UniProt P49653, K212A).
T6 construct: expressed in transfected cells; host or cells: HEK293
T6 sequence (P49653 1-472 K212A): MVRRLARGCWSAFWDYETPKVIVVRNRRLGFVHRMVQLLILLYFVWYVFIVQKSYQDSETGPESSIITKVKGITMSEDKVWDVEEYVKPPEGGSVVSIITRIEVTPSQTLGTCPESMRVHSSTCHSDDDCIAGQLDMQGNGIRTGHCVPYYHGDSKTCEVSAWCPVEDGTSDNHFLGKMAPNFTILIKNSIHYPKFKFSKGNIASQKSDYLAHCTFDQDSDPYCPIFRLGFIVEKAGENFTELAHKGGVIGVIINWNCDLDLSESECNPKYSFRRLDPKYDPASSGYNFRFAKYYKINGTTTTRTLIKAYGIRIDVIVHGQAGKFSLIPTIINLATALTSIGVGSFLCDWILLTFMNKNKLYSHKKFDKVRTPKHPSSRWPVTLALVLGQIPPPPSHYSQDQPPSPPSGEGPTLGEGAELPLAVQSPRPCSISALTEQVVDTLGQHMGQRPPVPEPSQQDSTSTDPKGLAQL
As to the kind of experiment: Conventional whole-cell patch recording of ATP-evoked currents, transfected HEK293 cells. In kind it is cell-based. The protocol:
(§1) As we described previously, [41], [42], human embryonic kidney (HEK 293) cells were purchased from Shanghai Institutes for Biological Sciences and cultured in Dulbecco's Modified Eagle Medium supplemented with 10% fetal bovine serum (FBS), 1% penicillin-streptomycin and 1% GlutaMAX™ at 37 °C, 5% CO2 and 95% air in a humidified environment. Plasmids were transfected into cells using transfection agents containing two solutions (Solution A: 250 mM CaCl2 in pure water; Solution B (in mM): 1.5 Na2HPO4, 140 NaCl and 50 HEPES, pH adjusted to 6.96). After mixing 2.5–3 μg of the plasmid and solution A, the mixture was added dropwise to an equal volume of solution B, followed by stirring with a pipette tip. The mixture was left to stabilize at room temperature for 3–5 min and then added to the cell culture dish. After 6 h of transfection, the medium in the culture dish was replaced with fresh medium.
(§2) Nystatin (0.15 mg/mL) was diluted with a high potassium internal solution containing (in mM): 75 K2SO4, 55 KCl, 5 MgSO4, and 10 HEPES (pH 7.4). The ckP2X7 and rP2X2 receptor currents were recorded using conventional whole-cell patch configuration. At 24–48 h after transfection, HEK293 cells were recorded using an Axopatch 200B amplifier (Molecular Devices, USA) at room temperature (25 ± 2 °C), with holding a potential of − 60 mV. Current data were sampled at 10 kHz, filtered at 2 kHz, and analyzed using the PCLAMP 10 software (Molecular Devices, USA). HEK293 cells were bathed in standard extracellular solution (SS) containing (in mM): 150 NaCl, 5 KCl, 2 CaCl2, 1 MgCl2, 10 glucose, and 10 HEPES (pH 7.4, by Tris-base). For conventional whole-cell recordings, the pipette solution consisted of (in mM): 120 KCl, 30 NaCl, 0.5 CaCl2, 1 MgCl2, 5 EGTA, and 10 HEPES (pH 7.4, by Tris-base). ATP and drugs were dissolved in standard extracellular solution and administered with a Y-tube.
(§3) All electrophysiological recordings were analyzed using Clampfit 10.6 (Molecular Devices). Pooled data were expressed as mean and standard error of the mean (s.e.m.). Comparisons between multiple independent groups were performed using one-way ANOVA followed by Dunnett's tests. Comparisons between two groups were made using paired (before and after engineered disulfide bond cross-linking) or unpaired Student’s t tests, as appropriate.

Another experiment deals with T7, rP2X2 V119W/H120W (Rattus norvegicus, UniProt P49653, H120W/V119W).
T7 construct: expressed in transfected cells; host or cells: HEK293
T7 sequence (P49653 1-472 V119W/H120W): T6 sequence (P49653 1-472 K212A) with V119W, H120W, A212K
The experiment is described as above. The class given is cell-based. The protocol:
as §1, §2, §3

The target of a further experiment is T8, rP2X2 WT (Rattus norvegicus, UniProt P49653).
T8 construct: expressed in transfected cells; host or cells: HEK293
T8 sequence (P49653 1-472): T6 sequence (P49653 1-472 K212A) with A212K
The experiment is described as above. In kind it is cell-based. As for the experimental part:
as §1, §2, §3

The next experiment relates to F 174 A mutant of hP2X3. Further details: method as in PMID 24223907. The conditions noted are these: hP2X3 F174A; cited from earlier work.

Broadly, the EC50 is the concentration giving half of the maximal effect. A high value points to a need for much substance. Usually IC50 stands for the concentration that gives 50% inhibition. Higher therefore signals weaker potency in that assay.

Positions count from the first letter of the chain named.

Consider `Nc1ncnc2c1ncn2[C@@H]1O[C@H](COP(=O)(O)OP(=O)(O)OP(=O)(O)O)[C@@H](O)[C@H]1O` [ATP], for which the EC50 stood at 0.832 ± 0.143 µM at rP2X3 WT; 12.9 ± 2.7 µM on rP2X3 K201C/V274C; 0.767 ± 0.099 µM on hP2X3 WT; 0.872 ± 0.232 µM on hP2X3 K113A; 1.22 ± 0.22 µM at hP2X3 R204A; 9.83 ± 0.34 µM at rP2X2 K212A (rP2X2 K212A). The EC50 at rP2X2 V119W/H120W (rP2X2 V119W/H120W) is 221 ± 36 µM; on rP2X2 WT (rP2X2 WT), 5.39 ± 0.11 µM. In addition, the “reduction in affinity to ATP vs WT” value with ckP2X7 T202W is given as “approximately 60 fold”.

As for `Nc1ncnc2c1ncn2[C@@H]1O[C@H](COP(=O)(O)OP(=O)(O)OP(=O)(O)O)[C@H]2OC3(O[C@H]21)C([N+](=O)[O-])=CC(=[N+]([O-])[O-])C=C3[N+](=O)[O-]` (stereo partly shown) [TNP-ATP, 2',3'-O-(2,4,6-trinitrophenyl)-ATP], in the experiment on ckP2X7 T202W (1 mM ATP), the “enhancement of apparent affinity of TNP-ATP vs WT” value is on record as “about 38 fold”. For the same molecule, the IC50 against rP2X2 K212A came out at 15.8 ± 2 µM; at rP2X2 V119W/H120W, 24.9 ± 5 µM; against rP2X2 WT it was 3.14 ± 0.95 µM. In addition, the “reduction of potency of inhibition by TNP-ATP vs WT” value at rP2X2 K212A (rP2X2 K212A vs rP2X2 WT) is roughly 5 fold. Besides, at rP2X2 V119W/H120W (rP2X2 V119W/H120W vs rP2X2 WT), the “reduction of sensitivity to TNP-ATP inhibition vs WT” value was roughly 8 fold. The “effect of mutation on inhibition by TNP-ATP” value in the experiment on F 174 A mutant of hP2X3 is “does not alter the inhibition”.

The values are drawn from publication PMC10762375 (Computational and Structural Biotechnology Journal, 2023).
